Non-standard residues stand in square brackets, D forms with d. No end group written: not given here. *: point of attachment. FITC = O=C1OC2(c3ccc(O)cc3Oc3cc(O)ccc32)c2ccc(NC(=S)*)cc21; Sar = CNCC(=O)O
system: 5-helix bundle (5HB) protein mimicking hRSV fusion protein F; test: 5HB-based competitive fluorescence polarization (FP) binding assay; design: species or system human respiratory syncytial virus (hRSV); settings: 200 µM peptide; inhibition of Fl-C35 tracer (5 nM) binding to 5HB (20 nM); FP buffer 20 mM PBS pH 7.4, 500 mM NaCl, 0.01% Tween-20, 0.05 mg/ml bovine gamma globulin; 1 h + 30 min at room temperature; ex 485/em 530 nm
Method: Competitive FP binding assays of the C20 derivatives were carried out as previously described. Briefly, a 5-helix bundle (5HB) protein was designed to mimic a post-fusion structure of fusion protein F (6-helix bundle) and provide a specific binding site for screening potential human respiratory syncytial virus (hRSV) entry inhibitors. Using a 5HB protein as a target protein and a fluorescently labeled 35 amino acid-long peptide (Fl-C35, sequence shown in Table S1) as a tracer, we performed a competitive FP assay to evaluated the binding affinity of each C20 analogue prepared in this study. In each well of a black 96-well plate (Corning Inc. Lowell, MA, USA), 20 nM of the 5HB with increasing concentrations of each peptomer in FP buffer (20 mM PBS at pH 7.4, 500 mM NaCl, 0.01% (v/v) Tween-20, and 0.05 mg/ml bovine gamma globulin) in a final volume of 185 µL was incubated for 1h at room temperature. Fl-C35 was then added to a final concentration of 5 nM followed by 30 min incubation at room temperature. The FP responses were monitored using a Synergy4 plate reader (Biotek, Winooski, VT, USA) with an excitation wavelength of 485 nm and an emission wavelength of 530 nm. The percentage of inhibition (% Inhibition) was calculated from the equation: % inhibition = 100×[1-(mP-mPf)/(mPb-mPf)]. Unbound Fl-C35 (mPf), bound Fl-C35 (mPb) and the bound inhibitor to the 5HB (mP) are used accordingly.
Sample preparation for FP measurements.

“ISQVNEK[Sar]NQSLAFIRKSDE [Sar8, sarcosine-substituted C20 peptide]” was tested. Which “% Inhibition at 200 µM” value did it give?
Its value is 26.85%.

With “ISQ[Sar]NEKINQSLAFIRKSDE [Sar4, sarcosine-substituted C20 peptide]” as the substance, how does the “% Inhibition at 200 µM” value read?
Its value is 1.85%.

Which “% Inhibition at 200 µM” value does the source give for “ISQVNEKPNQSLAFIRKSDE [Peptide P8, proline-substituted C20 peptide]” here?
The value was 11.11%.

How did the “% Inhibition at 200 µM” value turn out when “ISQVAEKINQSLAFIRKSDE [Peptide A5, alanine-substituted C20 peptide]” was run?
The value was 25.90%.

For “ISQVNAKINQSLAFIRKSDE [Peptide A6, alanine-substituted C20 peptide]”, which “% Inhibition at 200 µM” value is on record?
Its value is 89.09%.

Which “% Inhibition at 200 µM” value does the source give for “ISQVNEKINPSLAFIRKSDE [Peptide P10, proline-substituted C20 peptide]” here?
Its value is 9.26%.

Which “% Inhibition at 200 µM” value does the source give for “ISQVNEKINQSLAAIRKSDE [Peptide A14, alanine-substituted C20 peptide]” here?
Its value is 25.00%.

“ISAVNEKINQSLAFIRKSDE [Peptide A3, alanine-substituted C20 peptide]” was tested. Which “% Inhibition at 200 µM” value did it give?
The value was 27.27%.

“ISQVNEKINQSLPFIRKSDE [Peptide P13, proline-substituted C20 peptide]” was tested. Which “% Inhibition at 200 µM” value did it give?
Its value is 10.19%.

With “ISQVNEKINQSLAPIRKSDE [Peptide P14, proline-substituted C20 peptide]” as the substance, how does the “% Inhibition at 200 µM” value read?
The value was 13.89%.

Which “% Inhibition at 200 µM” value does the source give for “IPQVNEKINQSLAFIRKSDE [Peptide P2, proline-substituted C20 peptide]” here?
Its value is 23.15%.

“ISQVNEKI[Sar]QSLAFIRKSDE [Sar9, sarcosine-substituted C20 peptide]” was tested. Which “% Inhibition at 200 µM” value did it give?
Its value is 13.89%.

Which “% Inhibition at 200 µM” value does the source give for “ISQVPEKINQSLAFIRKSDE [Peptide P5, proline-substituted C20 peptide]” here?
Its value is 34.26%.

Which “% Inhibition at 200 µM” value does the source give for “ISQVNEKINQSAAFIRKSDE [Peptide A12, alanine-substituted C20 peptide]” here?
The value was 43.63%.

“ISQVNEKINQSLA[Sar]IRKSDE [Sar14, sarcosine-substituted C20 peptide]” was tested. Which “% Inhibition at 200 µM” value did it give?
The value was 4.63%.

Which “% Inhibition at 200 µM” value does the source give for “ISQVNEKINQSLAFIAKSDE [Peptide A16, alanine-substituted C20 peptide]” here?
Its value is 53.63%.

“PSQVNEKINQSLAFIRKSDE [Peptide P1, proline-substituted C20 peptide]” was tested. Which “% Inhibition at 200 µM” value did it give?
The value was 26.85%.

For “ISQVNEKINASLAFIRKSDE [Peptide A10, alanine-substituted C20 peptide]”, which “% Inhibition at 200 µM” value is on record?
The value was 11.36%.

For “ISQVNEKINQSLAFIRASDE [Peptide A17, alanine-substituted C20 peptide]”, which “% Inhibition at 200 µM” value is on record?
Its value is 100.00%.

With “ISQVNEKINQSLAFIRKPDE [Peptide P18, proline-substituted C20 peptide]” as the substance, how does the “% Inhibition at 200 µM” value read?
The value was 0.93%.

“ISQVNEKINQSLAFI[Sar]KSDE [Sar16, sarcosine-substituted C20 peptide]” was tested. Which “% Inhibition at 200 µM” value did it give?
The value was 0.00%.

“ISQVNPKINQSLAFIRKSDE [Peptide P6, proline-substituted C20 peptide]” was tested. Which “% Inhibition at 200 µM” value did it give?
Its value is 26.85%.

“ISQVNEKINQSLAFIRPSDE [Peptide P17, proline-substituted C20 peptide]” was tested. Which “% Inhibition at 200 µM” value did it give?
Its value is 6.48%.

With “{FITC}-YDPLVFPSDEFDASISQVNEKINQSLAFIRKSDEL [Fl-C35, fluorescently labeled 35 amino acid-long peptide used as tracer, reference compound]” as the substance, how does the “% Inhibition at 200 µM” value read?
The value was 100%.

With “I[Sar]QVNEKINQSLAFIRKSDE [Sar2, sarcosine-substituted C20 peptide]” as the substance, how does the “% Inhibition at 200 µM” value read?
The value was 22.22%.

Which “% Inhibition at 200 µM” value does the source give for “ISQVNEKINQSLAFPRKSDE [Peptide P15, proline-substituted C20 peptide]” here?
The value was 4.63%.

With “ISQVNEKINQSLAFIRKADE [Peptide A18, alanine-substituted C20 peptide]” as the substance, how does the “% Inhibition at 200 µM” value read?
Its value is 36.81%.

Which “% Inhibition at 200 µM” value does the source give for “[Sar]SQVNEKINQSLAFIRKSDE [Sar1, sarcosine-substituted C20 peptide]” here?
The value was 15.74%.

“ISQVNEKINQSLAFIRKSDP [Peptide P20, proline-substituted C20 peptide]” was tested. Which “% Inhibition at 200 µM” value did it give?
The value was 31.48%.

Which “% Inhibition at 200 µM” value does the source give for “ISQVNEKINQSLAFIR[Sar]SDE [Sar17, sarcosine-substituted C20 peptide]” here?
The value was 84.26%.

With “ISQVNEKINQSLAFIRKSPE [Peptide P19, proline-substituted C20 peptide]” as the substance, how does the “% Inhibition at 200 µM” value read?
The value was 84.26%.

“ISQV[Sar]EKINQSLAFIRKSDE [Sar5, sarcosine-substituted C20 peptide]” was tested. Which “% Inhibition at 200 µM” value did it give?
Its value is 23.15%.

Which “% Inhibition at 200 µM” value does the source give for “ISQVNEKINQSLAFIPKSDE [Peptide P16, proline-substituted C20 peptide]” here?
Its value is 4.63%.

Which “% Inhibition at 200 µM” value does the source give for “ISQVNEKINQ[Sar]LAFIRKSDE [Sar11, sarcosine-substituted C20 peptide]” here?
Its value is 13.89%.

For “ISQVN[Sar]KINQSLAFIRKSDE [Sar6, sarcosine-substituted C20 peptide]”, which “% Inhibition at 200 µM” value is on record?
The value was 108.33%.

“ISQVNEKINQSLAFIRKSD[Sar] [Sar20, sarcosine-substituted C20 peptide]” was tested. Which “% Inhibition at 200 µM” value did it give?
The value was 100.00%.

How did the “% Inhibition at 200 µM” value turn out when “ISPVNEKINQSLAFIRKSDE [Peptide P3, proline-substituted C20 peptide]” was run?
The value was 14.81%.

Which “% Inhibition at 200 µM” value does the source give for “IS[Sar]VNEKINQSLAFIRKSDE [Sar3, sarcosine-substituted C20 peptide]” here?
The value was 11.11%.

How did the “% Inhibition at 200 µM” value turn out when “ISQVNEKINQSLAFIRKSDE [Peptide C20, 20 amino acid-long peptide derived from the 6th helix of hRSV fusion protein F]” was run?
The value was 100%.

With “ISQVNEKINQSPAFIRKSDE [Peptide P12, proline-substituted C20 peptide]” as the substance, how does the “% Inhibition at 200 µM” value read?
Its value is 22.22%.

With “ISQVNEKIAQSLAFIRKSDE [Peptide A9, alanine-substituted C20 peptide]” as the substance, how does the “% Inhibition at 200 µM” value read?
Its value is 30.90%.

Which “% Inhibition at 200 µM” value does the source give for “ISQVNEKINQSL[Sar]FIRKSDE [Sar13, sarcosine-substituted C20 peptide]” here?
Its value is 4.63%.

For “ISQVNEKINQSLAFIRKSAE [Peptide A19, alanine-substituted C20 peptide]”, which “% Inhibition at 200 µM” value is on record?
The value was 31.81%.

Which “% Inhibition at 200 µM” value does the source give for “ISQVNEKINQSLAFIRKSDA [Peptide A20, alanine-substituted C20 peptide]” here?
Its value is 29.09%.

With “ISQVNEKINQSLAFIRK[Sar]DE [Sar18, sarcosine-substituted C20 peptide]” as the substance, how does the “% Inhibition at 200 µM” value read?
The value was 21.30%.

With “ISQVNEAINQSLAFIRKSDE [Peptide A7, alanine-substituted C20 peptide]” as the substance, how does the “% Inhibition at 200 µM” value read?
Its value is 100.00%.

Which “% Inhibition at 200 µM” value does the source give for “ISQVNEKINQSLAFIRKSDE [Peptide A13, alanine scan entry for position 13]” here?
Its value is 100.00%.

How did the “% Inhibition at 200 µM” value turn out when “ISQVNEKIPQSLAFIRKSDE [Peptide P9, proline-substituted C20 peptide]” was run?
Its value is 33.33%.

Which “% Inhibition at 200 µM” value does the source give for “IAQVNEKINQSLAFIRKSDE [Peptide A2, alanine-substituted C20 peptide]” here?
The value was 23.63%.

Which “% Inhibition at 200 µM” value does the source give for “ISQVNEKINQSLAF[Sar]RKSDE [Sar15, sarcosine-substituted C20 peptide]” here?
Its value is 30.56%.

How did the “% Inhibition at 200 µM” value turn out when “ISQANEKINQSLAFIRKSDE [Peptide A4, alanine-substituted C20 peptide]” was run?
Its value is 40.00%.

“ASQVNEKINQSLAFIRKSDE [Peptide A1, alanine-substituted C20 peptide]” was tested. Which “% Inhibition at 200 µM” value did it give?
The value was 15.45%.

How did the “% Inhibition at 200 µM” value turn out when “ISQVNE[Sar]INQSLAFIRKSDE [Sar7, sarcosine-substituted C20 peptide]” was run?
The value was 100.00%.

Which “% Inhibition at 200 µM” value does the source give for “ISQVNEKINQS[Sar]AFIRKSDE [Sar12, sarcosine-substituted C20 peptide]” here?
Its value is 7.41%.

“ISQVNEKIN[Sar]SLAFIRKSDE [Sar10, sarcosine-substituted C20 peptide]” was tested. Which “% Inhibition at 200 µM” value did it give?
The value was 21.30%.

Which “% Inhibition at 200 µM” value does the source give for “ISQVNEKINQPLAFIRKSDE [Peptide P11, proline-substituted C20 peptide]” here?
The value was 9.26%.

How did the “% Inhibition at 200 µM” value turn out when “ISQPNEKINQSLAFIRKSDE [Peptide P4, proline-substituted C20 peptide]” was run?
The value was 12.96%.

“ISQVNEKINQSLAFIRKS[Sar]E [Sar19, sarcosine-substituted C20 peptide]” was tested. Which “% Inhibition at 200 µM” value did it give?
The value was 59.26%.

With “ISQVNEKINQALAFIRKSDE [Peptide A11, alanine-substituted C20 peptide]” as the substance, how does the “% Inhibition at 200 µM” value read?
The value was 33.18%.

“ISQVNEKINQSLAFARKSDE [Peptide A15, alanine-substituted C20 peptide]” was tested. Which “% Inhibition at 200 µM” value did it give?
Its value is 21.36%.

Which “% Inhibition at 200 µM” value does the source give for “ISQVNEKANQSLAFIRKSDE [Peptide A8, alanine-substituted C20 peptide]” here?
The value was 13.63%.

Reference: paper PMC3605428, “A Readily Applicable Strategy to Convert Peptides to Peptoid-based Therapeutics” (PLoS ONE, 2013)
